The values that follow come from patent publication US9540384B2, “Pyrrolidino heterocycles” (Hoffmann-La Roche Inc., priority 2012, dated 2017).

The target in the assay is human PDE10A full length (Homo sapiens (Human), UniProt Q9Y233). In words: human PDE10A full length Scintillation Proximity Assay (SPA). The assay is classed as biochemical. The following applies: PDE10A enzyme, 50 nM cGMP + 50 nM [3H]-cGMP, 20 minutes at room temperature. As to the method: The following test was carried out in order to determine the activity of the compounds of the present invention. PDE10 activity of the compounds of the present invention was determined using a Scintillation Proximity Assay (SPA)-based method similar to the one previously described (Fawcett, L. et al., Proc Natl Acad Sci USA (2000) 97(7):3702-3707).
Sequence of human PDE10A full length (Q9Y233 other isoform, or with tags, fused parts or gaps): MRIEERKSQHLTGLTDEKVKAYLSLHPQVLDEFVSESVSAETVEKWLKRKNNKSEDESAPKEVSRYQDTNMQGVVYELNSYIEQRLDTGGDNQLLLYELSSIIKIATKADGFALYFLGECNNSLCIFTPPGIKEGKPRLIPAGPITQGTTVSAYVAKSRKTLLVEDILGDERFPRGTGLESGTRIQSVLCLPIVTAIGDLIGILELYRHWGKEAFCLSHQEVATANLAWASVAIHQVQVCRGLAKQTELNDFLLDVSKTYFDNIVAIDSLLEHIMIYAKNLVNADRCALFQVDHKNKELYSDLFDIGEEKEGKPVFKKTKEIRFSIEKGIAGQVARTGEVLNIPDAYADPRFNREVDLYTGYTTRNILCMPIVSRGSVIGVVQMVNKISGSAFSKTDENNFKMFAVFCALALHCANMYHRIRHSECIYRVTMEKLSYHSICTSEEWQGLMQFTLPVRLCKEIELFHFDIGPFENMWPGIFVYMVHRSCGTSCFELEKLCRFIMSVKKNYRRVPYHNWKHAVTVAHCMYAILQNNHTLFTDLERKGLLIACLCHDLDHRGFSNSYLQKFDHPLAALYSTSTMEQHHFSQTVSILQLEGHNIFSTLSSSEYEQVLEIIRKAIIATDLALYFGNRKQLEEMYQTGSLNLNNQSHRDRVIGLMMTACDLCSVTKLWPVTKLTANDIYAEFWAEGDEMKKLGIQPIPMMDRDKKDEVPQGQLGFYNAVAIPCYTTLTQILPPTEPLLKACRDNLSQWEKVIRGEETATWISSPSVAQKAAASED
The human PDE10A full length assay was performed in 96-well micro titer plates. The reaction mixture of 50 μl contained 20 mM HEPES pH=7.5/10 mM MgCl2/0.05 mg/ml BSA (Sigma cat. #A-7906), 50 nM cGMP (Sigma, cat. #G6129) and 50 nM [3H]-cGMP (GE Healthcare, cat. #TRK392 S.A. 13.2 Ci/mmol), 3.75 ng/well PDE10A enzyme (Enzo Life Science, Lausen, Switzerland cat #SE-534) with or without a specific test compound. A range of concentrations of the potential inhibitor was used to generate data for calculating the concentration of inhibitor resulting in 50% of the effect (e.g. IC50, the concentration of the competitor inhibiting PDE10A activity by 50%). Non-specific activity was tested without the enzyme. The reaction was initiated by the addition of the substrate solution (cGMP and [3H]-cGMP) and allowed to progress for 20 minutes at room temperature. The reaction was terminated by adding 25 μl of YSi-SPA scintillation beads (GE Healthcare, cat. #RPNQ0150) in 18 mM zinc sulphate solution (stop reagent). After 1 h under shaking, the plate was centrifuged one minute at 170 g to allow beads to settle. Afterwards, radioactive counts were measured on a Perkin Elmer TopCount Scintillation plate reader.
Background: In a scintillation proximity assay essentially only radioactivity close to the scintillant gives light.
As to `Cc1c(C(N)=O)nc2ccc(OCc3cccc(N4CCCC4)n3)nn12` [Example 56, 3-Methyl-6-((6-(pyrrolidin-1-yl)pyridin-2-yl)methoxy)imidazo[1,2-b]pyridazine-2-carboxamide], the IC50 – broadly, the point on the concentration scale where inhibition reaches its midpoint – came out at 1050 nM.

Consider `Cc1ncc(C)n2nc(/C=C/c3cncc(N4CCCC4)n3)nc12` [Example 50, (E)-5,8-Dim ethyl-2-(2-(6-(pyrrolidin-1-yl)pyrazin-2-yl)vinyl)[1,2,4]triazolo[1,5-a]pyrazine], for which the IC50 amounted to 18 nM.

In the case of `Cc1nc2ccc(OCc3cccc(N4CCCC4)n3)nn2c1C` [Example 44, 2,3-Dimethyl-6-((6-(pyrrolidin-1-yl)pyridin-2-yl)methoxy)imidazo[1,2-b]pyridazine], the concentration for half-maximal inhibition (IC50) amounted to 160 nM.

As for `CC1CCCN1c1cccc(CCc2nc(N(C)C)c3cc(Cl)ccc3n2)n1` (stereo not shown) [Example 38, 6-Chloro-N,N-dimethyl-2-(2-(6-(2-methylpyrrolidin-1-yl)pyridin-2-yl)ethyl)quinazolin-4-amine], the IC50 came to 81 nM.

On to `CN(C)c1nc(/C=C/c2cccc(N(C)CCO)n2)nc2ccc(Cl)cc12` [Example 39, (E)-2-((6-(2-(6-Chloro-4-(dimethylamino)quinazolin-2-yl)vinyl)pyridin-2-yl)(methyl)amino)ethanol], for which the IC50 came out at 240 nM.

Regarding `Clc1ccc2nc(CCc3cccc(N4CCCC4)n3)nc(N3CCOCC3)c2c1` [Example 20, 4-(6-Chloro-2-(2-(6-(pyrrolidin-1-yl)pyridin-2-yl)ethyl)quinazolin-4-yl)morpholine], the IC50 stood at 3.3 nM.

On to `CN(C)c1nc(CCc2cccc(N3CCC(O)C3)n2)nc2ccc(Cl)cc12` (stereo not shown) [Example 31, 1-(6-(2-(6-Chloro-4-(dimethylamino)quinazolin-2-yl)ethyl)pyridin-2-yl)pyrrolidin-3-ol], for which the 50% inhibitory concentration (IC50) was 770 nM.

As for `Cc1nc(C)c(CCc2cccc(N3CCCC3)n2)nc1C` [Example 8, 2,3,5-Trimethyl-6-(2-(6-(pyrrolidin-1-yl)pyridin-2-yl)ethyl)pyrazine], the IC50 was 600 nM.

For the compound `Cc1ncc(C)n2nc(CCc3cccc(N4CCCC4)n3)nc12` [Example 45, 5,8-Dimethyl-2-(2-(6-(pyrrolidin-1-yl)pyridin-2-yl)ethyl)-[1,2,4]triazolo-[1,5-a]pyrazine], the IC50 came to 4.5 nM.

In the case of `Cc1cn2nc(OCc3cccc(N4CCCC4)n3)ccc2n1` [Example 54, 2-Methyl-6-((6-(pyrrolidin-1-yl)pyridin-2-yl)methoxy)imidazo[1,2-b]pyridazine], the IC50 came to 260 nM.

In the case of `CN(C)c1nc(CCc2cccc(N(C)CCO)n2)nc2ccc(Cl)cc12` [Example 40, 2-((6-(2-(6-Chloro-4-(dimethylamino)quinazolin-2-yl)ethyl)pyridin-2-yl)(methyl)amino)ethanol], the IC50 was determined as 2160 nM.

For `CN(C)c1cccc(/C=C/c2nc(N(C)C)c3cc(Cl)ccc3n2)n1` [Example 41, (E)-6-Chloro-2-(2-(6-(dimethylamino)pyridin-2-yl)vinyl)-N,N-dimethylquinazolin-4-amine], the IC50 was determined as 750 nM.

For `COc1c(C)cnc(CCc2cccc(N3CCCC3)n2)c1C` [Example 5, 4-Methoxy-3,5-dimethyl-2-(2-(6-(pyrrolidin-1-yl)pyridin-2-yl)ethyl)pyridine], the half-maximal inhibitory concentration (IC50) was found to be 610 nM.

With `c1cc(COc2nc(N3CCOCC3)c3ccccc3n2)nc(N2CCCC2)c1` [Example 16, 4-(2-((6-(Pyrrolidin-1-yl)pyridin-2-yl)methoxy)quinazolin-4-yl)morpholine], the IC50 came to 50 nM.

For the compound `c1cc(COc2ccc3nc(C4CC4)cn3n2)nc(N2CCCC2)c1` [Example 55, 2-Cyclopropyl-6-((6-(pyrrolidin-1-yl)pyridin-2-yl)methoxy)imidazo[1,2-b]pyridazine], the IC50 came to 600 nM.

With `CN(C)c1cccc(CCc2nc(N(C)C)c3cc(Cl)ccc3n2)n1` [Example 42, 6-Chloro-2-(2-(6-(dimethylamino)pyridin-2-yl)ethyl)-N,N-dimethyl-quinazolin-4-amine], the IC50 was 1680 nM.
